How the values were obtained:
Experiment in all cases: relative viability (nuclei count vs DMSO), 5 days (fraction); higher = more cells survive
[1] = compound: C1/C(=C\C2=CC=CS2)/C(=O)/C(=C/C3=CC=CS3)/C1 + CS(=O)(=O)N1CCN(Cc2cc3nc(-c4cccc5[nH]ncc45)nc(N4CCOCC4)c3s2)CC1 [Pictilisib] (partner 1 µM)
Procedure, shortened: (§1)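 Lung cancer cell lines were seeded in 1536-well plates and dosed by pin tool the next day, with either a single drug or a fixed anchor-drug dose combined with five library-drug doses (not always all listed) spaced in √10 steps. Five days later, one step fixed the cells and stained their nuclei (final 0.05% Triton X-100, 1% formaldehyde, 1 ug/ml Hoechst), and nuclei were counted on 4× images. Relative viability is the nuclei count in treated wells divided by the count in vehicle wells, and each value is the median of duplicate plates.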

[2] = compound: C[C@]12O[C@H](C[C@]1(O)CO)n1c3ccccc3c3c4c(c5c6ccccc6n2c5c31)CNC4=O [Lestaurtinib] + CC1(C)CCC(c2ccc(Cl)cc2)=C(CN2CCN(c3ccc(C(=O)NS(=O)(=O)c4ccc(N[C@H](CCN5CCOCC5)CSc5ccccc5)c(S(=O)(=O)C(F)(F)F)c4)cc3)CC2)C1 [Navitoclax] (partner 0.5 µM)
Procedure, shortened: as §1

[3] = compound: C[C@]12O[C@H](C[C@]1(O)CO)n1c3ccccc3c3c4c(c5c6ccccc6n2c5c31)CNC4=O [Lestaurtinib] + C[C@]1(O)C[C@@H](c2nc(-c3ccc4ccc(-c5ccccc5)nc4c3)c3c(N)nccn32)C1 [Linsitinib] (partner 1 µM)
Procedure, shortened: as §1

[4] = compound: C1=CC(=CC=C1C2=CC(=C(S2)NC(=O)N)C(=O)N)F [TPCA-1] + CS(=O)(=O)CCNCc1ccc(-c2ccc3ncnc(Nc4ccc(OCc5cccc(F)c5)c(Cl)c4)c3c2)o1 [Lapatinib] (partner 2 µM)
Procedure, shortened: as §1

H3255
relative viability ([1]; first compound 0.2 µM): 0.545
relative viability ([1]; first compound 0.6325 µM): 0.452
relative viability ([1]; first compound 2 µM): 0.467
relative viability ([1]; first compound 6.325 µM): 0.405
relative viability ([1]; first compound 20 µM): 0.506
relative viability ([2]; first compound 0.005 µM): 0.44
relative viability ([2]; first compound 0.01581 µM): 0.437
relative viability ([2]; first compound 0.05 µM): 0.327
relative viability ([2]; first compound 0.1581 µM): 0.279
relative viability ([2]; first compound 0.5 µM): 0.182
relative viability ([3]; first compound 0.005 µM): 0.986
relative viability ([3]; first compound 0.01581 µM): 1.07
relative viability ([3]; first compound 0.05 µM): 0.864
relative viability ([3]; first compound 0.1581 µM): 0.668
relative viability ([3]; first compound 0.5 µM): 0.457
relative viability ([4]; first compound 0.04 µM): 0.261
relative viability ([4]; first compound 0.1265 µM): 0.24
relative viability ([4]; first compound 0.4 µM): 0.236
relative viability ([4]; first compound 1.265 µM): 0.219
relative viability ([4]; first compound 4 µM): 0.162

EMC-BAC-2
relative viability ([1]; first compound 0.2 µM): 0.61
relative viability ([1]; first compound 0.6325 µM): 0.548
relative viability ([1]; first compound 2 µM): 0.545
relative viability ([1]; first compound 6.325 µM): 0.48
relative viability ([1]; first compound 20 µM): 0.505
relative viability ([2]; first compound 0.005 µM): 1.25
relative viability ([2]; first compound 0.01581 µM): 1.22
relative viability ([2]; first compound 0.05 µM): 0.891
relative viability ([2]; first compound 0.1581 µM): 0.656
relative viability ([2]; first compound 0.5 µM): 0.346
relative viability ([3]; first compound 0.005 µM): 0.764
relative viability ([3]; first compound 0.01581 µM): 0.801
relative viability ([3]; first compound 0.05 µM): 0.641
relative viability ([3]; first compound 0.1581 µM): 0.45
relative viability ([3]; first compound 0.5 µM): 0.221
relative viability ([4]; first compound 0.04 µM): 0.993
relative viability ([4]; first compound 0.1265 µM): 0.854
relative viability ([4]; first compound 0.4 µM): 0.895
relative viability ([4]; first compound 1.265 µM): 0.752
relative viability ([4]; first compound 4 µM): 0.756

CAL-12T
relative viability ([1]; first compound 0.2 µM): 0.381
relative viability ([1]; first compound 0.6325 µM): 0.464
relative viability ([1]; first compound 2 µM): 0.578
relative viability ([1]; first compound 6.325 µM): 0.352
relative viability ([1]; first compound 20 µM): 0.377
relative viability ([2]; first compound 0.005 µM): 1.25
relative viability ([2]; first compound 0.01581 µM): 1.45
relative viability ([2]; first compound 0.05 µM): 1.08
relative viability ([2]; first compound 0.1581 µM): 1.2
relative viability ([2]; first compound 0.5 µM): 0.686
relative viability ([3]; first compound 0.005 µM): 0.805
relative viability ([3]; first compound 0.01581 µM): 0.84
relative viability ([3]; first compound 0.05 µM): 0.774
relative viability ([3]; first compound 0.1581 µM): 0.565
relative viability ([3]; first compound 0.5 µM): 0.416
relative viability ([4]; first compound 0.04 µM): 0.638
relative viability ([4]; first compound 0.1265 µM): 0.582
relative viability ([4]; first compound 0.4 µM): 0.708
relative viability ([4]; first compound 1.265 µM): 0.38
relative viability ([4]; first compound 4 µM): 0.389

SK-MES-1
relative viability ([1]; first compound 0.2 µM): 0.282
relative viability ([1]; first compound 0.6325 µM): 0.355
relative viability ([1]; first compound 2 µM): 0.391
relative viability ([1]; first compound 6.325 µM): 0.268
relative viability ([1]; first compound 20 µM): 0.382
relative viability ([2]; first compound 0.005 µM): 1.35
relative viability ([2]; first compound 0.01581 µM): 1.25
relative viability ([2]; first compound 0.05 µM): 0.59
relative viability ([2]; first compound 0.1581 µM): 0.354
relative viability ([2]; first compound 0.5 µM): 0.343
relative viability ([3]; first compound 0.005 µM): 1.04
relative viability ([3]; first compound 0.01581 µM): 1.06
relative viability ([3]; first compound 0.05 µM): 0.501
relative viability ([3]; first compound 0.1581 µM): 0.485
relative viability ([3]; first compound 0.5 µM): 0.317
relative viability ([4]; first compound 0.04 µM): 0.479
relative viability ([4]; first compound 0.1265 µM): 0.402
relative viability ([4]; first compound 0.4 µM): 0.429
relative viability ([4]; first compound 1.265 µM): 0.471
relative viability ([4]; first compound 4 µM): 0.34

EBC-1
relative viability ([1]; first compound 0.2 µM): 0.417
relative viability ([1]; first compound 0.6325 µM): 0.39
relative viability ([1]; first compound 2 µM): 0.383
relative viability ([1]; first compound 6.325 µM): 0.391
relative viability ([1]; first compound 20 µM): 0.457
relative viability ([2]; first compound 0.005 µM): 0.381
relative viability ([2]; first compound 0.01581 µM): 0.51
relative viability ([2]; first compound 0.05 µM): 0.343
relative viability ([2]; first compound 0.1581 µM): 0.328
relative viability ([2]; first compound 0.5 µM): 0.193
relative viability ([3]; first compound 0.005 µM): 0.856
relative viability ([3]; first compound 0.01581 µM): 0.999
relative viability ([3]; first compound 0.05 µM): 0.585
relative viability ([3]; first compound 0.1581 µM): 0.633
relative viability ([3]; first compound 0.5 µM): 0.432
relative viability ([4]; first compound 0.04 µM): 0.201
relative viability ([4]; first compound 0.1265 µM): 0.233
relative viability ([4]; first compound 0.4 µM): 0.196
relative viability ([4]; first compound 1.265 µM): 0.224
relative viability ([4]; first compound 4 µM): 0.248

NCI-H1355
relative viability ([1]; first compound 0.2 µM): 0.519
relative viability ([1]; first compound 0.6325 µM): 0.401
relative viability ([1]; first compound 2 µM): 0.411
relative viability ([1]; first compound 6.325 µM): 0.391
relative viability ([1]; first compound 20 µM): 0.474
relative viability ([2]; first compound 0.005 µM): 0.908
relative viability ([2]; first compound 0.01581 µM): 0.889
relative viability ([2]; first compound 0.05 µM): 0.73
relative viability ([2]; first compound 0.1581 µM): 0.457
relative viability ([2]; first compound 0.5 µM): 0.459
relative viability ([3]; first compound 0.005 µM): 0.795
relative viability ([3]; first compound 0.01581 µM): 0.838
relative viability ([3]; first compound 0.05 µM): 0.546
relative viability ([3]; first compound 0.1581 µM): 0.451
relative viability ([3]; first compound 0.5 µM): 0.302
relative viability ([4]; first compound 0.04 µM): 1.15
relative viability ([4]; first compound 0.1265 µM): 0.879
relative viability ([4]; first compound 0.4 µM): 0.956
relative viability ([4]; first compound 1.265 µM): 0.818
relative viability ([4]; first compound 4 µM): 0.719

NCI-H838
relative viability ([1]; first compound 0.2 µM): 0.456
relative viability ([1]; first compound 0.6325 µM): 0.511
relative viability ([1]; first compound 2 µM): 0.416
relative viability ([1]; first compound 6.325 µM): 0.413
relative viability ([1]; first compound 20 µM): 0.436
relative viability ([2]; first compound 0.005 µM): 1.21
relative viability ([2]; first compound 0.01581 µM): 1.05
relative viability ([2]; first compound 0.05 µM): 1
relative viability ([2]; first compound 0.1581 µM): 0.532
relative viability ([2]; first compound 0.5 µM): 0.164
relative viability ([3]; first compound 0.005 µM): 1.04
relative viability ([3]; first compound 0.01581 µM): 1.01
relative viability ([3]; first compound 0.05 µM): 0.759
relative viability ([3]; first compound 0.1581 µM): 0.507
relative viability ([3]; first compound 0.5 µM): 0.146
relative viability ([4]; first compound 0.04 µM): 1.14
relative viability ([4]; first compound 0.1265 µM): 0.864
relative viability ([4]; first compound 0.4 µM): 1.12
relative viability ([4]; first compound 1.265 µM): 0.598
relative viability ([4]; first compound 4 µM): 0.565

From the supplement of paper PMC10307832
